Data on 2 compounds can be found in BindingDB's records for doi:10.1021/jm030493t (Johnson & Johnson Pharmaceutical Research & Development, 2004).

The nature of this experiment: Compound was tested for inhibition of gel-filtered platelet (GFP) aggregation induced by alpha-thrombin.

As to `CN[C@H](Cc1ccccc1)C(=O)N1CCC[C@H]1C(=O)N[C@@H](CCCN=C(N)N)C(=O)c1nc2ccccc2s1` [RWJ-50353], the IC50 is 32 nM.

On to `CN[C@H](Cc1ccccc1)C(=O)N1CCCC1C(=O)N[C@H](C=O)CCCNC(=N)N` (stereo partly drawn) [(S)-1-((R)-2-Methylamino-3-phenyl-propionyl)-pyrrolidine-2-carboxylic acid ((S)-1-formyl-4-guanidino-butyl)-amide], for which it took 83 nM to reach half-maximal inhibition (IC50).
